# Results taken from patent US7186831B2, “5-halo-2-alkyl[1,2,4]triazolo[1,5-a]pyrimidin-7-amines” (priority 2001, dated 2007).
# Experiment: log P by HPLC
# Type: physicochemical
# Conditions: EEC directive 79/831 Annex V. A8 by HPLC (gradient method, acetonitrile/0.1% aqueous phosphoric acid)
row,logP,SMILES
1,2.77,Cc1nc2nc(Cl)c(-c3c(F)cccc3Cl)c(NCC(F)(F)F)n2n1 [compound 260]
2,3.72,Cc1nc2nc(Cl)c(-c3c(F)cccc3Cl)c(N3CCC(C(F)(F)F)CC3)n2n1 [compound 261]
3,3.03,CCN(CCOC)c1c(-c2c(F)cccc2Cl)c(Cl)nc2nc(C)nn12 [compound 269]
4,2.77,C#CCN(C)c1c(-c2c(F)cccc2Cl)c(Cl)nc2nc(C)nn12 [compound 271]
5,2.48,CCOC(=O)CN(C)c1c(-c2c(F)cccc2Cl)c(Cl)nc2nc(C)nn12 [compound 272]
6,3.26,C=CCN(C)c1c(-c2c(F)cccc2Cl)c(Cl)nc2nc(C)nn12 [compound 273]
7,3.63,C=C(C)CN(C)c1c(-c2c(F)cccc2Cl)c(Cl)nc2nc(C)nn12 [compound 275]
8,3.72,CCCN(CC1CCCO1)c1c(-c2c(F)cccc2Cl)c(Cl)nc2nc(C)nn12 (stereo not drawn) [compound 277]
9,2.02,Cc1nc2nc(Cl)c(-c3c(F)cccc3Cl)c(N3CCC(O)C3)n2n1 (stereo not drawn) [compound 278]
10,3.14,Cc1nc2nc(Cl)c(-c3ccc(F)cc3F)c(N3CCCC3C)n2n1 (stereo not drawn) [compound 280]
11,3.11,Cc1nc2nc(Cl)c(-c3ccc(F)cc3F)c(N3CC=CCC3)n2n1 [compound 283]
12,2.68,Cc1nc2nc(Cl)c(-c3ccc(F)cc3F)c(N3CCC4(CC3)OCCO4)n2n1 [compound 284]
13,3.7,Cc1nc2nc(Cl)c(-c3ccc(F)cc3F)c(N3CCCCC3C)n2n1 (stereo not drawn) [compound 285]
14,3.74,Cc1nc2nc(Cl)c(-c3ccc(F)cc3F)c(N3CCCC(C)C3)n2n1 (stereo not drawn) [compound 286]
15,3.75,Cc1nc2nc(Cl)c(-c3ccc(F)cc3F)c(N3CCC(C)CC3)n2n1 [compound 287]
16,3.94,CCC1=CCN(c2c(-c3ccc(F)cc3F)c(Cl)nc3nc(C)nn23)CC1 [compound 290]

row,logP,SMILES
1,3.49,Cc1nc2nc(Cl)c(-c3ccc(F)cc3F)c(N3CCC(C(F)(F)F)CC3)n2n1 [compound 293]
2,1.85,CC(=O)NC1CCN(c2c(-c3ccc(F)cc3F)c(Cl)nc3nc(C)nn23)CC1 [compound 294]
3,3.05,Cc1ccc(Nc2c(-c3ccc(F)cc3F)c(Cl)nc3nc(C)nn23)cc1 [compound 298]
4,3.7,Cc1nc2nc(Cl)c(-c3ccc(F)cc3F)c(NC(C)CC(C)C)n2n1 (stereo not drawn) [compound 301]
5,1.73,Cc1nc2nc(Cl)c(-c3c(F)cccc3F)c(N3CCC(O)C3)n2n1 (stereo not drawn) [compound 303]
6,1.64,CC(=O)NC1CCN(c2c(-c3c(F)cccc3F)c(Cl)nc3nc(C)nn23)C1 (stereo not drawn) [compound 305]
7,1.18,Cc1nc2nc(Cl)c(-c3c(F)cccc3F)c(N3CCC(N(C)C)C3)n2n1 (stereo not drawn) [compound 306]
8,2.6,Cc1nc2nc(Cl)c(-c3c(F)cccc3F)c(N3CCC4(CC3)OCCO4)n2n1 [compound 309]
9,3.57,Cc1nc2nc(Cl)c(-c3c(F)cccc3F)c(N3CCCCC3C)n2n1 (stereo not drawn) [compound 311]
10,3.91,Cc1nc2nc(Cl)c(-c3c(F)cccc3F)c(N3CCC(C)(C)CC3)n2n1 [compound 315]
11,2.69,COC(=O)C1CCN(c2c(-c3c(F)cccc3F)c(Cl)nc3nc(C)nn23)CC1 [compound 318]
12,1.78,CC(=O)NC1CCN(c2c(-c3c(F)cccc3F)c(Cl)nc3nc(C)nn23)CC1 [compound 323]
13,1.12,Cc1nc2nc(Cl)c(-c3c(F)cccc3F)c(N3CCN(C)CC3)n2n1 [compound 324]
14,2.85,Cc1nc2nc(Cl)c(-c3c(F)cccc3F)c(NCC(C)C)n2n1 [compound 328]
15,2.55,COC(CN(C)c1c(-c2c(F)cccc2F)c(Cl)nc2nc(C)nn12)OC [compound 334]
16,2.45,COCCN(C)c1c(-c2c(F)cccc2F)c(Cl)nc2nc(C)nn12 [compound 336]

# Second part, the compound before the results:
row,SMILES,logP
1,Cc1nc2nc(Cl)c(-c3c(F)cccc3Cl)c(N3CCSCC3)n2n1 [compound 259],3.18
2,Cc1nc2nc(Cl)c(-c3c(F)cccc3Cl)c(N3CCC(C)CC3)n2n1 [compound 262],3.99
3,Cc1nc2nc(Cl)c(-c3c(F)cccc3Cl)c(NCC3CC3)n2n1 [compound 263],2.95
4,CCC(C)Nc1c(-c2c(F)cccc2Cl)c(Cl)nc2nc(C)nn12 (stereo not drawn) [compound 264],3.14
5,Cc1nc2nc(Cl)c(-c3c(F)cccc3Cl)c(N3CC=CCC3)n2n1 [compound 265],3.33
6,Cc1nc2nc(Cl)c(-c3c(F)cccc3Cl)c(N3CCC(F)CC3)n2n1 [compound 266],3.07
7,C=CCN(CC)c1c(-c2c(F)cccc2Cl)c(Cl)nc2nc(C)nn12 [compound 267],3.59
8,CCN(CC1CCCO1)c1c(-c2c(F)cccc2Cl)c(Cl)nc2nc(C)nn12 (stereo not drawn) [compound 268],3.29
9,CCOC(=O)CN(CC)c1c(-c2c(F)cccc2Cl)c(Cl)nc2nc(C)nn12 [compound 270],3.14
10,Cc1nc2nc(Cl)c(-c3c(F)cccc3Cl)c(N(C)Cc3ccco3)n2n1 [compound 274],3.26
11,Cc1nc2nc(Cl)c(-c3c(F)cccc3Cl)c(N(C)CC(C)C)n2n1 [compound 276],3.68
12,Cc1nc2nc(Cl)c(-c3ccc(F)cc3F)c(N3CCCC3)n2n1 [compound 281],2.74
13,Cc1nc2nc(Cl)c(-c3ccc(F)cc3F)c(N3CCC(O)CC3)n2n1 [compound 282],1.9
14,Cc1nc2nc(Cl)c(-c3ccc(F)cc3F)c(N3CCC(C)(C)CC3)n2n1 [compound 288],4.01
15,CC(=O)C1CCN(c2c(-c3ccc(F)cc3F)c(Cl)nc3nc(C)nn23)CC1 [compound 289],2.5
16,CC1=CCCN(c2c(-c3ccc(F)cc3F)c(Cl)nc3nc(C)nn23)C1 [compound 291],3.49
17,COC(=O)C1CCN(c2c(-c3ccc(F)cc3F)c(Cl)nc3nc(C)nn23)CC1 [compound 292],2.78
18,Cc1nc2nc(Cl)c(-c3ccc(F)cc3F)c(N3CCCCC3)n2n1 [compound 295],3.32
19,Cc1nc2nc(Cl)c(-c3ccc(F)cc3F)c(N3CCOCC3)n2n1 [compound 296],2.3
20,Cc1nc2nc(Cl)c(-c3ccc(F)cc3F)c(N3CCSCC3)n2n1 [compound 297],2.97
21,Cc1nc2nc(Cl)c(-c3ccc(F)cc3F)c(Nc3ccc(F)cc3)n2n1 [compound 299],2.7
22,Cc1nc2nc(Cl)c(-c3ccc(F)cc3F)c(N3CCc4ccccc4C3)n2n1 [compound 300],3.28
23,Cc1nc2nc(Cl)c(-c3c(F)cccc3Cl)c(N3CCCC(C)C3)n2n1 (stereo not drawn) [compound 302],3.99

row,SMILES,logP
1,Cc1nc2nc(Cl)c(-c3c(F)cccc3F)c(N3CCCC3C)n2n1 (stereo not drawn) [compound 304],3.02
2,Cc1nc2nc(Cl)c(-c3c(F)cccc3F)c(N3CCC(O)CC3)n2n1 [compound 307],1.83
3,Cc1nc2nc(Cl)c(-c3c(F)cccc3F)c(N3CC=CCC3)n2n1 [compound 308],3.01
4,Cc1nc2nc(Cl)c(-c3c(F)cccc3F)c(N3CC(C)CC(C)C3)n2n1 (stereo not drawn) [compound 310],4.08
5,Cc1nc2nc(Cl)c(-c3c(F)cccc3F)c(N3CCCC(C)C3)n2n1 (stereo not drawn) [compound 312],3.63
6,Cc1nc2nc(Cl)c(-c3c(F)cccc3F)c(N3CCC(C)CC3)n2n1 [compound 313],3.64
7,Cc1nc2nc(Cl)c(-c3c(F)cccc3F)c(N3CCCC(O)C3)n2n1 (stereo not drawn) [compound 314],2.03
8,CCC1=CCN(c2c(-c3c(F)cccc3F)c(Cl)nc3nc(C)nn23)CC1 [compound 316],3.84
9,CC1=CCCN(c2c(-c3c(F)cccc3F)c(Cl)nc3nc(C)nn23)C1 [compound 317],3.39
10,Cc1nc2nc(Cl)c(-c3c(F)cccc3F)c(N3CCC(Br)CC3)n2n1 [compound 319],3.33
11,COC(=O)C1CCCCN1c1c(-c2c(F)cccc2F)c(Cl)nc2nc(C)nn12 (stereo not drawn) [compound 320],3.04
12,Cc1nc2nc(Cl)c(-c3c(F)cccc3F)c(N3CCC(NC(=O)OC(C)(C)C)CC3)n2n1 [compound 321],3.15
13,Cc1nc2nc(Cl)c(-c3ccccc3F)c(N3CCC(N4CCOCC4)CC3)n2n1 [compound 322],1.26
14,Cc1cccc(Nc2c(-c3c(F)cccc3F)c(Cl)nc3nc(C)nn23)c1 [compound 326],2.89
15,Cc1nc2nc(Cl)c(-c3c(F)cccc3F)c(N3CCc4ccccc4C3)n2n1 [compound 327],3.22
16,Cc1nc2nc(Cl)c(-c3c(F)cccc3F)c(NCC(C)(C)C)n2n1 [compound 329],3.27
17,Cc1nc2nc(Cl)c(-c3c(F)cccc3F)c(NC(C)CC(C)C)n2n1 (stereo not drawn) [compound 330],3.55
18,C#CCN(C)c1c(-c2c(F)cccc2F)c(Cl)nc2nc(C)nn12 [compound 331],2.54
19,Cc1nc2nc(Cl)c(-c3c(F)cccc3F)c(N(C)CC3OCCO3)n2n1 [compound 332],2.43
20,C=CCN(C)c1c(-c2c(F)cccc2F)c(Cl)nc2nc(C)nn12 [compound 333],2.95
21,Cc1nc2nc(Cl)c(-c3c(F)cccc3F)c(N(C)CC(C)C)n2n1 [compound 335],3.37
22,C=C(C)CN(C)c1c(-c2c(F)cccc2F)c(Cl)nc2nc(C)nn12 [compound 337],3.3

# Same assay, conditions: HPLC, gradient method, acetonitrile/0.1% aqueous phosphoric acid; EEC directive 79/831 Annex V. A8
row,logP,SMILES
1,3.33,CCN(CC)c1c(-c2c(F)cccc2Cl)c(Cl)nc2nc(C)nn12 [compound 252]
2,2.11,Cc1nc2nc(Cl)c(-c3c(F)cccc3Cl)c(NCC#N)n2n1 [compound 253]
3,3.55,Cc1nc2nc(Cl)c(-c3c(F)cccc3Cl)c(N3CCCCC3)n2n1 [compound 254]
4,3.29,Cc1nc2nc(Cl)c(-c3c(F)cccc3Cl)c(NC3CCCC3)n2n1 [compound 255]
5,2.77,Cc1nc2nc(Cl)c(-c3c(F)cccc3Cl)c(NC(C)C)n2n1 [compound 256]
6,2.42,COCCNc1c(-c2c(F)cccc2Cl)c(Cl)nc2nc(C)nn12 [compound 257]
7,2.77,Cc1nc2nc(Cl)c(-c3c(F)cccc3Cl)c(NC3CC3)n2n1 [compound 258]
